Measurements as given in patent US20220233502A1, “COMPOSITION FOR PREVENTING OR TREATING ASTHMA, RHINITIS OR CONJUNCTIVITIS, COMPRISING N-ACYL AMINO ACID AS ACTIVE INGREDIENT” (STEMDR INC., priority 2019, published 2022).
“Also recorded” adds a separate entry of the source.

Experiments:
Type in all cases: in vivo, BALB/c mice
[1] = tested on: asthma-induced mice (inflammatory cells in the airway); experiment: Inflammatory cells in bronchoalveolar lavage fluid of asthma-induced mice; conditions: OVA asthma mice; for inflow of eosinophils into the airway / WBC, bronchoalveolar lavage fluid: 3.5 μmol/kg oral once a day for 7 days from day 25; for inflow of eosinophils into the airway: result in words; for WBC Differential Counting (%) EOS (eosinophils) / WBC Differential Counting (%) MAC (macrophages) / WBC Differential Counting (%) MONO (monocytes) / WBC Differential Counting (%) NEU (neutrophils) / WBC Differential Counting (k/uL) EOS (eosinophils) / WBC Differential Counting (k/uL) MAC (macrophages) / WBC Differential Counting (k/uL) MONO (monocytes) / WBC Differential Counting (k/uL) NEU (neutrophils) / WBC, bronchoalveolar lavage fluid: mean, N=8; for WBC Differential Counting (%) EOS (eosinophils) / WBC Differential Counting (%) MAC (macrophages) / WBC Differential Counting (%) MONO (monocytes) / WBC Differential Counting (%) NEU (neutrophils) / WBC Differential Counting (k/uL) EOS (eosinophils) / WBC Differential Counting (k/uL) MAC (macrophages) / WBC Differential Counting (k/uL) MONO (monocytes) / WBC Differential Counting (k/uL) NEU (neutrophils): BAL fluid, 3.5 μmol/kg oral once a day for 7 days
Description: Specific pathogen-free BALB/c mice (6-week-old, male) were purchased from Doul Biotech (Osan, Korea). Experiment was started when the mice were 7- to 10-week old. The mice were housed in a laminar flow cabinet and were given water and feed ad libitum. The mice were sensitized by intraperitoneally injecting 0.02 mg of ovalbumin (OVA) and alum (1 mg) (Sigma-Aldrich) as an immunologic adjuvant twice on days 0 and 14. For 4 days from day 28, the mice were placed in a plastic nebulizer container of a regular size and were made to inhale OVA in the form of an aerosol by spraying 5% OVA for 30 minutes (airway challenge). After anesthetizing the mouse and inserting a tube into the bronchus, the bronchus was washed with a buffer and cells were obtained therefrom. The cells were centrifuged, suspended at 1×10^4 cells/100 μL, and fixed by centrifuging with a cytospin. Then, the number of eosinophils, monocytes, neutrophils and macrophages were measured by staining with Diff-Quik. Neutrophils, macrophages, monocytes and eosinophils were observed as inflammatory cells in the airway. Each of N-acetyl-L-alanine, N-oleoyl-L-alanine, N-acetyl-L-tryptophan and N-oleoyl-L-tryptophan was dissolved in 10 mL of phosphate-buffered saline to 3.5 μmol/kg and was orally administered for 7 days from day 25, once a day.

IL-5 = experiment: Th2 cytokine IL-5 in bronchial wash (ELISA); conditions: OVA asthma mice; 3.5 μmol/kg oral once a day for 7 days from day 25; FIG. 4
Description: (§1) Specific pathogen-free BALB/c mice (6-week-old, male) were purchased from Doul Biotech (Osan, Korea). Experiment was started when the mice were 7- to 10-week old. The mice were housed in a laminar flow cabinet and were given water and feed ad libitum.
(§2) The mice were sensitized by intraperitoneally injecting 0.02 mg of ovalbumin (OVA) and alum (1 mg) (Sigma-Aldrich) as an immunologic adjuvant twice on days 0 and 14. For 4 days from day 28, the mice were placed in a plastic nebulizer container of a regular size and were made to inhale OVA in the form of an aerosol by spraying 5% OVA for 30 minutes (airway challenge).
(§3) The concentration of several cytokines (TNF-α, IL-4, IL-5, IL-13) in bronchial wash was measured using an ELISA kit (R&D Systems, Minneapolis, Minn., USA).
(§4) Th2 cytokines, IL-4, IL-5 and IL-13, are known to be involved in airway inflammation, bronchial hypersensitivity and IgE antibody production mediated by eosinophils. 3.5 μmol/kg N-acetyl-L-alanine, N-oleoyl-L-alanine, N-acetyl-L-tryptophan or N-oleoyl-L-tryptophan dissolved in 10 mL of phosphate-buffered saline was orally administered once a day, for 7 days from day 25 after the induction of asthma, and the cytokines were measured.

[2] = tested on: asthma-induced mice (lung tissue); experiment: Masson's trichrome staining of lung tissue, degree of fibrosis around the airway; conditions: OVA asthma mice; oral administration for a week; vs OVA-challenged group; FIG. 2
Description: as §1, §2
(§5) For histological assay, tissues taken out from the lung were fixed with formalin and embedded in paraffin. The embedded tissue was sliced to 4-μm thickness and subjected to 1) hematoxylin and eosin (H&E) staining for investigation of the degree of inflammation and 2) Masson's trichrome staining for investigation of the degree of pulmonary fibrosis.
Lung tissue was stained with Masson's trichrome after oral administration of the drug for a week.

IL-13 = experiment: Th2 cytokine IL-13 in bronchial wash (ELISA); conditions: OVA asthma mice; 3.5 μmol/kg oral once a day for 7 days from day 25; FIG. 5
Description: as §1, §2, §3, §4

rhinitis-induced mice = experiment: OVA-induced allergic rhinitis, nasal rubbing and sneezing; conditions: 10 μL of 10 μM intranasally; for number of nasal rubbing: counted for 15 minutes on day 27, FIG. 6A; for number of sneezing: counted for 15 minutes on day 27, FIG. 6B
Description: as §1
The mice were sensitized by intraperitoneally injecting 0.02 mg of ovalbumin (OVA) and alum (1 mg) (Sigma-Aldrich) as an immunologic adjuvant twice on days 0 and 14. For 7 days from day 21, the mice were topically stimulated by injecting 10 μL of a solution of 100 μg of OVA dissolved in 20 μL of phosphate-buffered saline into both nasal cavities, once a day. After the final injection of OVA (day 27), symptom score was recorded by summing the numbers of nasal rubbing and sneezing. The symptom score was recorded for 15 minutes, and the result was compared between the groups.
Ovalbumin (OVA) of Preparation Example 3 was used as an antigen to induce allergic rhinitis. After OVA challenging from day 21 to day 26, 10 μL of each of N-acetyl-L-alanine, N-oleoyl-L-alanine, N-acetyl-L-tryptophan and N-oleoyl-L-tryptophan dissolved in phosphate-buffered saline to 10 μM was intranasally administered 12 hours later. After the final injection of OVA (day 27), symptom score was recorded by summing the numbers of nasal rubbing and sneezing. The symptom score was recorded for 15 minutes, and the result was compared between the groups.

[3] = tested on: conjunctivitis-induced mice; experiment: OVA-induced conjunctivitis, clinical grading of conjunctival edema and flare; conditions: 10 μL of 100 μM intraocularly 30 minutes and 12 hours after challenge, scale 0 to 4+, FIG. 7
Description: as §1
The mice were sensitized by intraperitoneally injecting 0.02 mg of ovalbumin (OVA) and alum (1.5 mg) (Sigma-Aldrich) as an immunologic adjuvant twice on days 0 and 7. For 12 days from day 14, conjunctivitis was induced by injecting 10 μL of a solution of 100 μg of OVA dissolved in 20 μL of phosphate-buffered saline into each eye, once a day.
24 hours after the final injection of OVA (day 25), the clinical grading of conjunctival edema and flare (redness) was assessed using a portable slit lamp (Carl Zeiss, Oberkochen, Germany). The assessment was performed in a blinded fashion 2 hours after OVA injection. Each clinical parameter was scored on a scale of 0 to 4+(0 absent, 1+minimal, 2+mild, 3+moderate, 4+severe) as described in Merayo-Lloves, J., Calonge, M, and Foster, C. S. 1995. Experimental model of allergic conjunctivitis to ragweed in guinea pig. Curr. Eye Res. 14: 487-494. A negative control group was given no treatment.
Ovalbumin of Preparation Example 4 was used as an antigen to induce conjunctivitis. After challenging 100 μg of ovalbumin into the eye from day 15 to 26, 10 μL of each of N-acetyl-L-alanine, N-oleoyl-L-alanine, N-acetyl-L-tryptophan and N-oleoyl-L-tryptophan dissolved in phosphate-buffered saline to 100 μM was intraocularly administered 30 minutes and 12 hours later. On day 26, the clinical grading of conjunctival edema and flare (redness) was assessed using a portable slit lamp (Carl Zeiss, Oberkochen, Germany).

[4] = tested on: asthma-induced mice (lung tissue); experiment: H&E staining of lung tissue, degree of inflammation; conditions: OVA asthma mice; oral administration for a week; vs OVA-challenged group; FIG. 1
Description: as §1, §2, §5
Lung tissue was stained with H&E after oral administration of the drug for a week.

IL-4 = experiment: Th2 cytokine IL-4 in bronchial wash (ELISA); conditions: OVA asthma mice; 3.5 μmol/kg oral once a day for 7 days from day 25; FIG. 3
Description: as §1, §2, §3, §4

Row | SMILES | inflow of eosinophils into the airway [1] | WBC Differential Counting (%) EOS (eosinophils) [1] [%] | WBC Differential Counting (%) MAC (macrophages) [1] [%] | WBC Differential Counting (%) MONO (monocytes) [1] [%] | WBC Differential Counting (%) NEU (neutrophils) [1] [%] | WBC Differential Counting (k/uL) EOS (eosinophils) [1] [k/uL] | WBC Differential Counting (k/uL) MAC (macrophages) [1] [k/uL] | WBC Differential Counting (k/uL) MONO (monocytes) [1] [k/uL] | WBC Differential Counting (k/uL) NEU (neutrophils) [1] [k/uL] | WBC, bronchoalveolar lavage fluid [1] | IL-5 secretion in airway (IL-5) | fibrosis around the airway, Masson's trichrome staining of lung tissue [2] | IL-13 secretion in airway (IL-13) | number of nasal rubbing (rhinitis-induced mice) | number of sneezing (rhinitis-induced mice) | clinical grade of conjunctivitis (conjunctival edema and flare) [3] | inflammation around the airway, H&E staining of lung tissue [4] | IL-4 secretion in airway (IL-4)
1 | CCCCCCCC/C=C\CCCCCCCC(=O)N[C@@H](C)C(=O)O [NOA, N-oleoyl-L-alanine] | significantly inhibited | 3.4 | 87.3 | 3.8 | 5.5 | 0.01 | 0.34 | 0.01 | 0.02 | 0.38 ×10^2 cells/μL | significantly inhibited | inhibited fibrosis; also recorded: highest inhibition | significantly inhibited | remarkably decreased | remarkably decreased | remarkably increased clinical grades | remarkably inhibited inflammation; also recorded: highest inhibition of inflammation | significantly inhibited
2 | CCCCCCCC/C=C\CCCCCCCC(=O)N[C@@H](Cc1c[nH]c2ccccc12)C(=O)O [NOT, N-oleoyl-L-tryptophan] | significantly inhibited | 17.0 | 74.3 | 3.6 | 5.1 | 0.07 | 0.32 | 0.01 | 0.02 | 0.43 ×10^2 cells/μL | significantly inhibited | inhibited fibrosis | significantly inhibited | remarkably decreased | remarkably decreased | remarkably increased clinical grades | remarkably inhibited inflammation | significantly inhibited
3 | CC(=O)N[C@@H](C)C(=O)O [NAA, N-acetyl-L-alanine] | significantly inhibited | 10.1 | 81.8 | 3.3 | 4.9 | 0.04 | 0.32 | 0.01 | 0.02 | 0.39 ×10^2 cells/μL | significantly inhibited | inhibited fibrosis | significantly inhibited | remarkably decreased | remarkably decreased | remarkably increased clinical grades | remarkably inhibited inflammation | significantly inhibited
4 | CC(=O)N[C@@H](Cc1c[nH]c2ccccc12)C(=O)O [NAT, N-acetyl-L-tryptophan] | significantly inhibited | 20.1 | 71.8 | 3.9 | 4.1 | 0.10 | 0.33 | 0.02 | 0.02 | 0.47 ×10^2 cells/μL | significantly inhibited | inhibited fibrosis | significantly inhibited | remarkably decreased | remarkably decreased | remarkably increased clinical grades | remarkably inhibited inflammation | significantly inhibited
